Measured values as given in PubChem BioAssay AID256 (DTP/NCI, 2004).
“And” between values parts separate entries of the source, which are not always exact repeats. Equal entries are not always repeated. Toxic doses and inconclusive results are not listed. The calls were made as follows: active = survival T/C of 150% or more; inactive = T/C below 125% in these data.

Test system: CD2F1 mice, L1210 leukemia ip, survival T/C
Test: NCI In Vivo Anticancer Drug Screen. Data for tumor model L1210 Leukemia (intraperitoneal) in CD2F1 (CDF1) mice
Settings: higher = longer survival
Procedure, shortened: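 Antitumor effect is scored in animals hosting a serially transplanted tumor. Values compare compound-dosed animals against vehicle-only controls as a simple quotient.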

[1] = endpoint: mean survival time, dose: 37.5 mg/kg/injection, schedule: Q01DX009 (ip), vehicle: saline
[2] = endpoint: mean survival time, dose: 75.0 mg/kg/injection, schedule: Q01DX009 (ip), vehicle: saline
[3] = endpoint: mean survival time, dose: 100.0 mg/kg/injection, schedule: Q01DX001 (ip), vehicle: saline with Tween-80
[4] = endpoint: mean survival time, dose: 200.0 mg/kg/injection, schedule: Q01DX001 (ip), vehicle: saline with Tween-80
[5] = endpoint: mean survival time, dose: 400.0 mg/kg/injection, schedule: Q01DX001 (ip), vehicle: saline with Tween-80
[6] = endpoint: mean survival time, dose: 25.0 mg/kg/injection, schedule: Q01DX009 (ip), vehicle: saline
[7] = endpoint: mean survival time, dose: 50.0 mg/kg/injection, schedule: Q01DX009 (ip), vehicle: saline

Measured: T/C

CC(=O)OC1CCC2(C)C3CCC4(C)C(C(C)CCCC(C)C)CCC4C3C3C(=O)OC32C1 (stereo not given)
inactive: endpoint: mean survival time, dose: 100.0 mg/kg/injection, schedule: Q01DX001 (ip), vehicle: acetone 97 % of control | endpoint: mean survival time, dose: 100.0 mg/kg/injection, schedule: Q04DX003 (ip), vehicle: acetone 98 % of control | endpoint: mean survival time, dose: 200.0 mg/kg/injection, schedule: Q01DX001 (ip), vehicle: acetone 101 % of control | endpoint: mean survival time, dose: 200.0 mg/kg/injection, schedule: Q04DX003 (ip), vehicle: acetone 93 % of control | endpoint: mean survival time, dose: 400.0 mg/kg/injection, schedule: Q01DX001 (ip), vehicle: acetone 97 % of control | endpoint: mean survival time, dose: 400.0 mg/kg/injection, schedule: Q04DX003 (ip), vehicle: acetone 90 % of control

CCCCCCCCCCCCCCOS(=O)(=O)O
inactive: [1] 93 % of control | [2] 93 % of control

O=C1O/C(=C\c2ccccc2)c2c(Br)c(Br)c(Br)c(Br)c21
inactive: [1] 96 % of control | [2] 96 % of control | endpoint: mean survival time, dose: 150.0 mg/kg/injection, schedule: Q01DX009 (ip), vehicle: saline 98 % of control | endpoint: mean survival time, dose: 300.0 mg/kg/injection, schedule: Q01DX009 (ip), vehicle: saline 100 % of control

O=C(O)Cc1ccccc1C(=O)O.[NH-]C1CCCCC1[NH-].[Pt+2]
inactive: endpoint: median survival time, dose: 3.12 mg/kg/injection, schedule: Q04DX003 (ip), vehicle: saline 102 % of control and 108 % of control | endpoint: median survival time, dose: 6.25 mg/kg/injection, schedule: Q04DX003 (ip), vehicle: saline 103 % of control and 108 % of control | endpoint: median survival time, dose: 12.5 mg/kg/injection, schedule: Q04DX003 (ip), vehicle: saline 109 % of control and 110 % of control | endpoint: median survival time, dose: 25.0 mg/kg/injection, schedule: Q04DX003 (ip), vehicle: saline 105 % of control and 109 % of control | endpoint: median survival time, dose: 50.0 mg/kg/injection, schedule: Q04DX003 (ip), vehicle: saline 117 % of control and 112 % of control

CSc1nc(N)c(N=O)c(=O)[nH]1
inactive: endpoint: mean survival time, dose: 100.0 mg/kg/injection, schedule: Q01DX001 (ip), vehicle: Klucel (hydroxypropylcellulose) (HPC) 98 % of control | endpoint: mean survival time, dose: 200.0 mg/kg/injection, schedule: Q01DX001 (ip), vehicle: Klucel (hydroxypropylcellulose) (HPC) 100 % of control | endpoint: mean survival time, dose: 400.0 mg/kg/injection, schedule: Q01DX001 (ip), vehicle: Klucel (hydroxypropylcellulose) (HPC) 109 % of control

O=C(Nc1ccc(NC2=NCCN2)cc1)c1ccc(C(=O)Nc2ccc(NC3=NCCN3)cc2)cc1
inactive: endpoint: mean survival time, dose: 3.0 mg/kg/injection, schedule: Q01DX008 (iv), vehicle: water 115 % of control

Fc1ccc(CC(F)F)cc1
inactive: [3] 107 % of control | [4] 98 % of control | [5] 103 % of control

COc1cc(-c2nc(-c3ccc(N=Cc4ccc(N(CCCOS(C)(=O)=O)CCCOS(C)(=O)=O)cc4)cc3)cs2)ccc1OCc1ccccc1
inactive: [3] 91 % of control | [4] 95 % of control | endpoint: mean survival time, dose: 200.0 mg/kg/injection, schedule: Q01DX009 (ip), vehicle: saline with Tween-80 86 % of control | [5] 89 % of control

CC1CCC(C(C)C)C(NCCO)C1 (stereo not given)
inactive: endpoint: mean survival time, dose: 18.8 mg/kg/injection, schedule: Q01DX009 (ip), vehicle: saline 96 % of control | [1] 97 % of control | [2] 100 % of control

CCCCNC(C)(C)C(=O)c1cccs1
inactive: [6] 94 % of control | [7] 98 % of control | endpoint: mean survival time, dose: 100.0 mg/kg/injection, schedule: Q01DX009 (ip), vehicle: saline 100 % of control

CC/C=C\C/C=C\C/C=C\CCCCCCCC(=O)O
inactive: endpoint: mean survival time, dose: 100.0 mg/kg/injection, schedule: Q04DX003 (ip), vehicle: saline with Tween-80 92 % of control | endpoint: mean survival time, dose: 200.0 mg/kg/injection, schedule: Q04DX003 (ip), vehicle: saline with Tween-80 100 % of control | endpoint: mean survival time, dose: 400.0 mg/kg/injection, schedule: Q04DX003 (ip), vehicle: saline with Tween-80 92 % of control

CCOc1ccc(N2C(=O)CC(Sc3ccccc3N)C2=O)cc1 (stereo not given)
inactive: endpoint: mean survival time, dose: 100.0 mg/kg/injection, schedule: Q01DX009 (ip), vehicle: acetone 93 % of control | endpoint: mean survival time, dose: 200.0 mg/kg/injection, schedule: Q01DX009 (ip), vehicle: acetone 104 % of control | endpoint: mean survival time, dose: 400.0 mg/kg/injection, schedule: Q01DX009 (ip), vehicle: acetone 112 % of control

NCCCCC1(CCCCN)OCCO1
inactive: [6] 95 % of control | endpoint: mean survival time, dose: 25.0 mg/kg/injection, schedule: Q04DX002 (ip), vehicle: saline 102 % of control | [7] 102 % of control | endpoint: mean survival time, dose: 50.0 mg/kg/injection, schedule: Q04DX002 (ip), vehicle: saline 95 % of control | [3] 94 % of control
